Measurements published in patent US20210267944A1 (BioXcel Therapeutics, Inc., priority 2018, published 2021).
Structures can show the parent of a compound that is named as a salt. Where two headings read alike, the source gives them in different places.

Conditions: opioid withdrawal patients
From the text: The participants were continuously monitored by the site personnel, including blood pressure and heart rate, from the start of the infusion through resolution of sedation and/or any adverse effects on blood pressure or heart rate. An electrocardiogram was obtained at screening, pre-infusion and upon resolution of sedation, a predetermined reduction in COWS or return to baseline.

Compound: Cc1cccc([C@H](C)c2cnc[nH]2)c1C [dexmedetomidine hydrochloride]
- Diastolic blood pressure Max (Day-1, 00:00 Hr): 110 mm of Hg
- Diastolic blood pressure Mean ± SD (Day-1, 00:00 Hr): 83.81 ± 12.99 mm of Hg
- Diastolic blood pressure Median (Day-1, 00:00 Hr): 82 mm of Hg
- Diastolic blood pressure Min (Day-1, 00:00 Hr): 64 mm of Hg
- Heart rate Max (Day-1, 00:00 Hr): 106 beats/minutes
- Heart rate Mean ± SD (Day-1, 00:00 Hr): 69.9 ± 16.37 beats/minutes
- Heart rate Median (Day-1, 00:00 Hr): 66 beats/minutes
- Heart rate Min (Day-1, 00:00 Hr): 55 beats/minutes
- Diastolic blood pressure Max (Day-1, 00:15 Hr): 96 mm of Hg
- Diastolic blood pressure Mean ± SD (Day-1, 00:15 Hr): 78.09 ± 9.99 mm of Hg
- Diastolic blood pressure Median (Day-1, 00:15 Hr): 76 mm of Hg
- Diastolic blood pressure Min (Day-1, 00:15 Hr): 62 mm of Hg
- Heart rate Max (Day-1, 00:15 Hr): 86 beats/minutes
- Heart rate Mean ± SD (Day-1, 00:15 Hr): 66.36 ± 11.9 beats/minutes
- Heart rate Median (Day-1, 00:15 Hr): 67 beats/minutes
- Heart rate Min (Day-1, 00:15 Hr): 49 beats/minutes
- Diastolic blood pressure Max (Day-1, 00:30 Hr): 86 mm of Hg
- Diastolic blood pressure Mean ± SD (Day-1, 00:30 Hr): 70 ± 8.8 mm of Hg
- Diastolic blood pressure Median (Day-1, 00:30 Hr): 68 mm of Hg
- Diastolic blood pressure Min (Day-1, 00:30 Hr): 59 mm of Hg
- Heart rate Max (Day-1, 00:30 Hr): 84 beats/minutes
- Heart rate Mean ± SD (Day-1, 00:30 Hr): 66.88 ± 12.26 beats/minutes
- Heart rate Median (Day-1, 00:30 Hr): 70 beats/minutes
- Heart rate Min (Day-1, 00:30 Hr): 52 beats/minutes
- Diastolic blood pressure Max (Day-1, 00:45 Hr): 86 mm of Hg
- Diastolic blood pressure Mean ± SD (Day-1, 00:45 Hr): 74.5 ± 7.67 mm of Hg
- Diastolic blood pressure Median (Day-1, 00:45 Hr): 76 mm of Hg
- Diastolic blood pressure Min (Day-1, 00:45 Hr): 61 mm of Hg
- Heart rate Max (Day-1, 00:45 Hr): 89 beats/minutes
- Heart rate Mean ± SD (Day-1, 00:45 Hr): 68.83 ± 14.91 beats/minutes
- Heart rate Median (Day-1, 00:45 Hr): 66 beats/minutes
- Heart rate Min (Day-1, 00:45 Hr): 50 beats/minutes
- Diastolic blood pressure Max (Day-1, 01:00 Hr): 77 mm of Hg
- Diastolic blood pressure Mean ± SD (Day-1, 01:00 Hr): 71.4 ± 6.05 mm of Hg
- Diastolic blood pressure Median (Day-1, 01:00 Hr): 72 mm of Hg
- Diastolic blood pressure Min (Day-1, 01:00 Hr): 60 mm of Hg
- Heart rate Max (Day-1, 01:00 Hr): 85 beats/minutes
- Heart rate Mean ± SD (Day-1, 01:00 Hr): 69.6 ± 11.35 beats/minutes
- Heart rate Median (Day-1, 01:00 Hr): 66 beats/minutes
- Heart rate Min (Day-1, 01:00 Hr): 54 beats/minutes
- Diastolic blood pressure Max (Day-1, 01:15 Hr): 82 mm of Hg
- Diastolic blood pressure Mean ± SD (Day-1, 01:15 Hr): 72 ± 8.16 mm of Hg
- Diastolic blood pressure Median (Day-1, 01:15 Hr): 72 mm of Hg
- Diastolic blood pressure Min (Day-1, 01:15 Hr): 62 mm of Hg
- Heart rate Max (Day-1, 01:15 Hr): 76 beats/minutes
- Heart rate Mean ± SD (Day-1, 01:15 Hr): 72 ± 2.82 beats/minutes
- Heart rate Median (Day-1, 01:15 Hr): 70 beats/minutes
- Heart rate Min (Day-1, 01:15 Hr): 70 beats/minutes
- Diastolic blood pressure Max (Day-1, 01:30 Hr): 66 mm of Hg
- Diastolic blood pressure Mean ± SD (Day-1, 01:30 Hr): 61 ± 5 mm of Hg
- Diastolic blood pressure Median (Day-1, 01:30 Hr): 61 mm of Hg
- Diastolic blood pressure Min (Day-1, 01:30 Hr): 56 mm of Hg
- Heart rate Max (Day-1, 01:30 Hr): 61 beats/minutes
- Heart rate Mean ± SD (Day-1, 01:30 Hr): 60.5 ± 0.5 beats/minutes
- Heart rate Median (Day-1, 01:30 Hr): 60.5 beats/minutes
- Heart rate Min (Day-1, 01:30 Hr): 60 beats/minutes
- Diastolic blood pressure Max (Day-1, 30 min. post Infusion): 86 mm of Hg
- Diastolic blood pressure Mean ± SD (Day-1, 30 min. post Infusion): 75.27 ± 9.22 mm of Hg
- Diastolic blood pressure Median (Day-1, 30 min. post Infusion): 73 mm of Hg
- Diastolic blood pressure Min (Day-1, 30 min. post Infusion): 60 mm of Hg
- Heart rate Max (Day-1, 30 min. post Infusion): 99 beats/minutes
- Heart rate Mean ± SD (Day-1, 30 min. post Infusion): 65.18 ± 14.03 beats/minutes
- Heart rate Median (Day-1, 30 min. post Infusion): 62 beats/minutes
- Heart rate Min (Day-1, 30 min. post Infusion): 50 beats/minutes
- Diastolic blood pressure Max (Day-1, Screening): 108 mm of Hg
- Diastolic blood pressure Mean ± SD (Day-1, Screening): 84.18 ± 13.13 mm of Hg
- Diastolic blood pressure Median (Day-1, Screening): 81 mm of Hg
- Diastolic blood pressure Min (Day-1, Screening): 63 mm of Hg
- Heart rate Max (Day-1, Screening): 108 beats/minutes
- Heart rate Mean ± SD (Day-1, Screening): 68.54 ± 15.32 beats/minutes
- Heart rate Median (Day-1, Screening): 66 beats/minutes
- Heart rate Min (Day-1, Screening): 55 beats/minutes
- Diastolic blood pressure Max (Day-2, 00:00 Hr): 88 mm of Hg
- Diastolic blood pressure Mean ± SD (Day-2, 00:00 Hr): 78.4 ± 7.86 mm of Hg
- Diastolic blood pressure Median (Day-2, 00:00 Hr): 79 mm of Hg
- Diastolic blood pressure Min (Day-2, 00:00 Hr): 69 mm of Hg
- Heart rate Max (Day-2, 00:00 Hr): 94 beats/minutes
- Heart rate Mean ± SD (Day-2, 00:00 Hr): 68.8 ± 13.94 beats/minutes
- Heart rate Median (Day-2, 00:00 Hr): 63 beats/minutes
- Heart rate Min (Day-2, 00:00 Hr): 55 beats/minutes
- Diastolic blood pressure Max (Day-2, 00:15 Hr): 90 mm of Hg
- Diastolic blood pressure Mean ± SD (Day-2, 00:15 Hr): 77.4 ± 9.91 mm of Hg
- Diastolic blood pressure Median (Day-2, 00:15 Hr): 76 mm of Hg
- Diastolic blood pressure Min (Day-2, 00:15 Hr): 62 mm of Hg
- Heart rate Max (Day-2, 00:15 Hr): 85 beats/minutes
- Heart rate Mean ± SD (Day-2, 00:15 Hr): 67.4 ± 12.35 beats/minutes
- Heart rate Median (Day-2, 00:15 Hr): 61 beats/minutes
- Heart rate Min (Day-2, 00:15 Hr): 53 beats/minutes
- Diastolic blood pressure Max (Day-2, 00:30 Hr): 84 mm of Hg
- Diastolic blood pressure Mean ± SD (Day-2, 00:30 Hr): 73.4 ± 8.54 mm of Hg
- Diastolic blood pressure Median (Day-2, 00:30 Hr): 71 mm of Hg
- Diastolic blood pressure Min (Day-2, 00:30 Hr): 61 mm of Hg
- Heart rate Max (Day-2, 00:30 Hr): 93 beats/minutes
- Heart rate Mean ± SD (Day-2, 00:30 Hr): 68.2 ± 5.54 beats/minutes
- Heart rate Median (Day-2, 00:30 Hr): 58 beats/minutes
- Heart rate Min (Day-2, 00:30 Hr): 54 beats/minutes
- Diastolic blood pressure Max (Day-2, 00:45 Hr): 86 mm of Hg
- Diastolic blood pressure Mean ± SD (Day-2, 00:45 Hr): 79 ± 7.68 mm of Hg
- Diastolic blood pressure Median (Day-2, 00:45 Hr): 82 mm of Hg
- Diastolic blood pressure Min (Day-2, 00:45 Hr): 66 mm of Hg
- Heart rate Max (Day-2, 00:45 Hr): 97 beats/minutes
- Heart rate Mean ± SD (Day-2, 00:45 Hr): 69 ± 16.80 beats/minutes
- Heart rate Median (Day-2, 00:45 Hr): 63 beats/minutes
- Heart rate Min (Day-2, 00:45 Hr): 53 beats/minutes
- Diastolic blood pressure Max (Day-2, 01:00 Hr): 87 mm of Hg
- Diastolic blood pressure Mean ± SD (Day-2, 01:00 Hr): 79.33 ± 7.58 mm of Hg
- Diastolic blood pressure Median (Day-2, 01:00 Hr): 82 mm of Hg
- Diastolic blood pressure Min (Day-2, 01:00 Hr): 69 mm of Hg
- Heart rate Max (Day-2, 01:00 Hr): 94 beats/minutes
- Heart rate Mean ± SD (Day-2, 01:00 Hr): 72.66 ± 17.15 beats/minutes
- Heart rate Median (Day-2, 01:00 Hr): 72 beats/minutes
- Heart rate Min (Day-2, 01:00 Hr): 52 beats/minutes
- Diastolic blood pressure Max (Day-2, 01:15 Hr): 101 mm of Hg
